Earlier results on 2 molecules are cited in US9782416B2, “Pharmaceutical formulations of potassium ATP channel openers and uses thereof” (Essentialis, Inc., priority 2004, dated 2017).

SMILES strings stand for the structures.

In one data set the target is Kir6.2/SUR1 channel (Rattus norvegicus, UniProt Q09429). As to conditions: Dabrowski et al. 2002.
The target in the next data set is T1, KATP channel (Homo sapiens, UniProt Q09428).
T1 construct: host or cells: patients with hyperinsulinism or pancreatic insulinoma (endogenous channel)
T1 sequence (Q09428 whole entry): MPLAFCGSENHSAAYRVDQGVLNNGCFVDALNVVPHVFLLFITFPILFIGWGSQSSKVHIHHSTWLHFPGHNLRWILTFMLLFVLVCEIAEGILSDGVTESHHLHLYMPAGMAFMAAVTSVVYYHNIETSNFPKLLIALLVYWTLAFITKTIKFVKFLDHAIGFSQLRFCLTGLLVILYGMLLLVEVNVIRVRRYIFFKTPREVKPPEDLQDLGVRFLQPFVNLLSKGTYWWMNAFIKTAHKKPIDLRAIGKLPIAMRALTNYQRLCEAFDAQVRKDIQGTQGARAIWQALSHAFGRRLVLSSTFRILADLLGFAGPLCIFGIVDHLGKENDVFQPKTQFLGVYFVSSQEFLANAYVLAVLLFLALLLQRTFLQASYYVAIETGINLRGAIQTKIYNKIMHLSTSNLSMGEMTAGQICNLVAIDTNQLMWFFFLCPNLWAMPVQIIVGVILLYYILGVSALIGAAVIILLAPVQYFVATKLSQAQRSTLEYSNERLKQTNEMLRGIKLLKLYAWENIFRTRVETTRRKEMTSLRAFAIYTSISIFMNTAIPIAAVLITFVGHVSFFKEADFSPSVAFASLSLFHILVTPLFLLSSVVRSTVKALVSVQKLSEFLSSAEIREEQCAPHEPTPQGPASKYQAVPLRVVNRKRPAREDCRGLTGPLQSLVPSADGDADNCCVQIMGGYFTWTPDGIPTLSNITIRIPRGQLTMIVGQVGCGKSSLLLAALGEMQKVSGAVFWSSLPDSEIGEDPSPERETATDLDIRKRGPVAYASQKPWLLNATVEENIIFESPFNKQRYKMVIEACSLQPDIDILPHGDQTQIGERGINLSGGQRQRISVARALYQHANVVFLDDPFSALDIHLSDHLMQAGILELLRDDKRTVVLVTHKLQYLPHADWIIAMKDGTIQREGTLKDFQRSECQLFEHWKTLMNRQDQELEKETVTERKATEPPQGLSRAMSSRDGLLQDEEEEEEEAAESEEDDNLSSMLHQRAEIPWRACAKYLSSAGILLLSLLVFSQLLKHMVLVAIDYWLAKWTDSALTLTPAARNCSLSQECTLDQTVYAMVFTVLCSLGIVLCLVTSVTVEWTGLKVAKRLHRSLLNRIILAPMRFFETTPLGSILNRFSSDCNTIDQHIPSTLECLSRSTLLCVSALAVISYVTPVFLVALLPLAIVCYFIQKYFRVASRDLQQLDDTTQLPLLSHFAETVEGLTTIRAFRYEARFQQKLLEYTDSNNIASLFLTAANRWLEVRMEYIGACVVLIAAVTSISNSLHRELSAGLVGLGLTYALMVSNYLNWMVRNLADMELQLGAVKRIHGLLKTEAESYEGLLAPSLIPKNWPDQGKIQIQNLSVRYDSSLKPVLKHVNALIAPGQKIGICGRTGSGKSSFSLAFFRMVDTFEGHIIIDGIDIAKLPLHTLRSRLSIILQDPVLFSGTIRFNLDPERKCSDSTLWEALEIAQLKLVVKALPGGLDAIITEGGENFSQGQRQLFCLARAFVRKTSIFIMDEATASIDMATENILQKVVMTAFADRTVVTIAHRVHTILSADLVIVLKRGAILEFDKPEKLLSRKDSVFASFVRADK
T1 sequence (Q14654 whole entry partner): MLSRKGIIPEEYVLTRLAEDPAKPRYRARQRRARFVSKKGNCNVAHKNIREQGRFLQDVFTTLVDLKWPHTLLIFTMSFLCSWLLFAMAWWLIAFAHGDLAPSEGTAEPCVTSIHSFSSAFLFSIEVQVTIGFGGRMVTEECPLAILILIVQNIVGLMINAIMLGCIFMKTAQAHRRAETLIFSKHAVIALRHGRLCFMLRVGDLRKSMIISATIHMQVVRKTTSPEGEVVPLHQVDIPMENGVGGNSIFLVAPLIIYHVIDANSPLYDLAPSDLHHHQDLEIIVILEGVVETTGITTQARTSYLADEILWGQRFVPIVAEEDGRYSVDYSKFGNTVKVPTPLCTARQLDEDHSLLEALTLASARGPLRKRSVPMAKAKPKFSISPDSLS
The note with it: patients with hyperinsulinism and patients with pancreatic insulinoma.

Kir6.2/SUR1 channel, sequence (Q09429 whole entry): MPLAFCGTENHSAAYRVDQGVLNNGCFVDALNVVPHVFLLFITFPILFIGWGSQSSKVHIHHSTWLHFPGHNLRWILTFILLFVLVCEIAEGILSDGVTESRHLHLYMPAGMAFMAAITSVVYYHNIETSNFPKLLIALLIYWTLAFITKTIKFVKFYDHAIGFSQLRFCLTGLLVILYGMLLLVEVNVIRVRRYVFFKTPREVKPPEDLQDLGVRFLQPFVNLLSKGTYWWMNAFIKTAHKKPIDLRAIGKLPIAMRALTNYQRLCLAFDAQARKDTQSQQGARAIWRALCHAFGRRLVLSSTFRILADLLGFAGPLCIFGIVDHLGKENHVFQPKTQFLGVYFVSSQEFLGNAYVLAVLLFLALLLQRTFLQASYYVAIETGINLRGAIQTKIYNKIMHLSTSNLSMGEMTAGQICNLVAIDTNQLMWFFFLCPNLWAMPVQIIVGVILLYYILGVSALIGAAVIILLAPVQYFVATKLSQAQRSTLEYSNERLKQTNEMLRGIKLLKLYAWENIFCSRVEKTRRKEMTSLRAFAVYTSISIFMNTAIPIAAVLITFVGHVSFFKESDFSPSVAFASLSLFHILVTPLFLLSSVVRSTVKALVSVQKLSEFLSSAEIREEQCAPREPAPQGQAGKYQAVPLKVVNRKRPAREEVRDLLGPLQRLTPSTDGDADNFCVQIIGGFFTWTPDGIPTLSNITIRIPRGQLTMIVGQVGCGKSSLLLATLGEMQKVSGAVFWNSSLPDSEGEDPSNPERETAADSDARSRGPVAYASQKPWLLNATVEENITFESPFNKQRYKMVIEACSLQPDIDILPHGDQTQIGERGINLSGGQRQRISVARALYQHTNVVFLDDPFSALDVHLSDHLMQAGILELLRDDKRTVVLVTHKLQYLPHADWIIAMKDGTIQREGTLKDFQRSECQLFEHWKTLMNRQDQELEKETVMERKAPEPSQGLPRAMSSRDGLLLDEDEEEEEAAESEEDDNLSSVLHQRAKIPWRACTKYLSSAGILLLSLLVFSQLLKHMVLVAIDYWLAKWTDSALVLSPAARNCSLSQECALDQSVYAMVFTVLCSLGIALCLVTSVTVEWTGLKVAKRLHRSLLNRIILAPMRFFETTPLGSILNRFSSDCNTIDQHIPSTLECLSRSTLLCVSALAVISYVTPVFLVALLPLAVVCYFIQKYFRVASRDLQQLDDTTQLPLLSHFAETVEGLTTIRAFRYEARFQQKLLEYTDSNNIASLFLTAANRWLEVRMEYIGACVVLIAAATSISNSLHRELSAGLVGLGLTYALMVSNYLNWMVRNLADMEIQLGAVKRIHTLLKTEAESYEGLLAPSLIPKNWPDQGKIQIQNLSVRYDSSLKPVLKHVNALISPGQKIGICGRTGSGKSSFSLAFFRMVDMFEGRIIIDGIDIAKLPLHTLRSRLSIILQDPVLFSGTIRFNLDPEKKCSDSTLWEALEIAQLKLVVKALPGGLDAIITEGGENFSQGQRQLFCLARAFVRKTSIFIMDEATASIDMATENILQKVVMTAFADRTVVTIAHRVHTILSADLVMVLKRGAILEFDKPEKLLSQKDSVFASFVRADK
Kir6.2/SUR1 channel, sequence (Q61743 whole entry partner): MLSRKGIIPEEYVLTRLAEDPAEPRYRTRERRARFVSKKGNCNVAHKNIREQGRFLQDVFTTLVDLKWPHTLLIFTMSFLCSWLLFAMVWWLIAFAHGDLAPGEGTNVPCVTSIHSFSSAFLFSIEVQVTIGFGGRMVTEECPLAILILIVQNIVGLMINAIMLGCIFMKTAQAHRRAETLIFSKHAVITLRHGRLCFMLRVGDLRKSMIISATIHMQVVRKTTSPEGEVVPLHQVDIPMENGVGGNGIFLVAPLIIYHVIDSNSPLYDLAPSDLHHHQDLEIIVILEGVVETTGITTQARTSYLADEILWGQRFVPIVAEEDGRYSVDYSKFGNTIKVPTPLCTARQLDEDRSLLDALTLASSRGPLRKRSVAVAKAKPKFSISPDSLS

As for `COc1ccc2c(c1)S(=O)(=O)N=C(NC(C)C)N2` [3-isopropylamino-7-methoxy-4H-1,2,4,-benzothiadiazine 1,1-dioxide], on Kir6.2/SUR1 channel, the channel opener selectivity entry is given as “selective Kir6.2/SUR1 channel opener”. As to `CC(C)N=C1Nc2cc(Cl)c(Cl)cc2S(=O)(=O)N1` [BPDZ 154], the “KATP channel activator activity” value on KATP channel was “effective KATP channel activator”.
